{"source": "patent US4668630A", "about": "“Stabilized enzymatic composition” (Beckman Instruments, Inc., priority 1984, dated 1987)", "tested_on": "lactate dehydrogenase (LD)", "test": "LD activity of serial dilution samples on Roche Cobas UV clinical analyzer", "format": "biochemical, human", "conditions": "Table II, 1-20 mg/ml KO2 CCO2 K in LD SEG", "method": "Aliquots of this base solution were diluted as shown in Table I with a LD SEG solution devoid of KO2 CCO2 K. The LD activity of each of the serial dilution samples was measured on a Roche Cobas brand UV clinical analyzer and the results are set forth in Table II.", "note": "Where a name gives a salt, the structure may show the parent alone."}
{"smiles": "O=C(O)C(=O)O", "note": "[KO2 CCO2 K, potassium oxalate]", "values": [{"measurement": "effect on LD activity (in words)", "value": "inhibition of LD activity"}]}
